# Experimental data taken from US10857155B2, “Compounds targeting proteins, compositions, methods, and uses thereof” (BioTheryX, Inc., priority 2017, dated 2020).
# How the values were obtained:
# Type in all cases: cell-based
# GSPT1 = molecular target: T1, GSPT1 (Homo sapiens, UniProt P15170); assay: Western blot analysis of GSPT1 protein levels in Jurkat cells; details: DMSO = 100.00; for GSPT1 protein level (% of DMSO control) at 0.1 µM: 100 nM compound; for GSPT1 protein level (% of DMSO control) at 1 µM: 1 uM compound
# T1 construct: Whole cell extract was prepared with RIPA buffer according to manufacturer's protocol; endogenous in cells; host or cells: Jurkat cells
# T1 sequence (P15170 whole entry): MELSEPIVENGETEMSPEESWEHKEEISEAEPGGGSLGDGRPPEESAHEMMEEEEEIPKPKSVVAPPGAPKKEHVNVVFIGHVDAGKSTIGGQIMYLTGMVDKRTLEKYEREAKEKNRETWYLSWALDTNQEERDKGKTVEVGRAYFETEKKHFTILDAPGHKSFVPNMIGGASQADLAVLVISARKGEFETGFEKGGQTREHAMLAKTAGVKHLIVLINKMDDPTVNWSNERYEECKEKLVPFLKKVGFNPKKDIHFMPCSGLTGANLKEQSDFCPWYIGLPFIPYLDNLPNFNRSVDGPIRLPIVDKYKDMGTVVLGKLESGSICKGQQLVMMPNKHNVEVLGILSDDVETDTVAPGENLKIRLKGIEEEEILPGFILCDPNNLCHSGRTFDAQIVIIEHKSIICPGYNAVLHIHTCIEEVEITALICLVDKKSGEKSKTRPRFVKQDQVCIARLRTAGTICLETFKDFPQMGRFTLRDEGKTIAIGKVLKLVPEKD
# Experimental: FIG. 1 represents the activity against CK1α, ikaros, and GPST1 in Jurkat cells, plated in 96 well plates. Cells were pretreated with compounds for 4 h and then lysed and protein levels measure via Western blots. The negative control wells were treated with DMSO. Cells were treated with the indicated compound at the indicated concentration. Compound activity is measured as a decrease in GSPT1 protein levels.
# Western Blot Protocol: Cell lines were grown in RPMI 1640 supplemented with streptomycin, penicillin and 10% fetal bovine serum.
# Jurkat cells were cultured at approximately 10^6 cells per mL, DMSO or the indicated compound was added to the cells and allowed to incubate for 6-8 h. Whole cell extract was prepared with RIPA buffer according to manufacturer's protocol (Pierce (Dallas, Tex.)). Briefly, ˜2×10^6 cells were washed once in PBS, the cell pellet was resuspended in RIPA buffer and allowed to incubate for 15 min on ice. Cell debris was removed by centrifugation and the cleared whole cell lysate was transferred to a new tube for further analysis.
# For western blot analysis, whole cell extracts were separated on 4-12% SDS-polyacrylamide gels, transferred to nitrocellulose and probed with the indicated primary antibodies. Membranes were subsequently washed and probed with the appropriate horseradish peroxidase (HRP)-conjugated secondary antibody. Membranes were subsequently washed and probed with the appropriate IRDye secondary antibodies (LI-COR). The signal was detected using the Odyssey Imaging System (LI-COR).
# H1048 cells = assay: Cell viability assay (CellTiter-Glo), H1048 cells; details: Homo sapiens, NCI-H1048, 72 h, 3 days; for viability at 1 µM: H1048, 1 μM; for viability at 10 µM: H1048, 10 μM
# Experimental: (§1) Molm-13 cells were cultivated in RPMI-1640 (10% FBS/1% pen-strep) and were plated in white walled 96-well plates at 20,000 cells/well. H1048 cells were cultured in DMEM:F12 media supplemented with 5% fetal bovine serum, insulin, transferrin, sodium selenite, hydrocortisone, estradiol, penicillin and streptomycin, and were plated in white walled 96-well plates at 20,000 cells/well.
# (§2) Cells were treated with compound at the indicated concentration or DMSO (control) and the cultures were incubated for 3 days at 37° C. and 5% CO2. Following the incubation period, 100 μL of CellTiterGlow (CTG) reagent (CellTiter-Glo® Luminescent Cell Viability Assay, Promega (Madison, Wis.)) was added to each well. Following a 10 min incubation with shaking, luminescence was measured using a Victor Wallac Luminometer.
# IL-1β = assay: IL-1 beta in LPS-induced PBMCs / CD14+ monocytes, Meso Scale assay
# Experimental: FIG. 2 represents the activity against IL-1-beta in CD14 monocytes, plated in 96 well plates and pretreated with Compounds 1, 2, or 3, or pomalidomide, for 1 h and then induced with 100 ng/mL LPS for 18-24 h. Cytokines were measured according to MesoScale protocol. Negative control wells were treated with DMSO. Compound activity was measured as a percentage of LPS-induced activity.
# (§3) Either frozen primary blood mononuclear cells (PBMCs) or frozen CD14+ mobilized peripheral blood monocytes were purchased from AllCells (PB003F, Normal Peripheral Blood MNC (Alameda, Calif.)). Cells were quick thawed, washed 1-time with RPMI-1640 (10% FBS/1% Pen-Strep) and plated in 96 well plates at 200,000 cells per well. Cells were pretreated with DMSO only, pomalidomide or the indicated compounds for 1 h and then induced with 100 ng/mL lipopolysaccharide (LPS) for 18-24 h. The supernatant was analyzed for IL-1 beta, IL-6, and TNF-alpha, using Meso Scale assay according to manufacturer's protocol. The negative control wells were treated with DMSO.
# (§4) Compound activity is measured as fold difference from the DMSO control. Compounds 1, 2, and 3 each reduced expression of IL-1-b in LPS-stimulated PBMCs by over 80% at 1 uM, relative to a just under 80% reduction with pomalidomide at 10 μM (FIG. 2).
# IL-2 = IL-2 in PBMCs on anti-human CD3 (OKT3) coated plates, Mesoscale analysis; details: PBMC, 24 h, relative to DMSO control, read-out: Fold Change IL-2
# Experimental: For the IL-2 analysis, 96 well plates were precoated with 1 μg/mL anti-human CD3 antibody (OKT3, eBioscience Inc., San Diego, Calif.). After washing with PBS, compounds were added (50 μL/well) followed by PBMCs diluted at 3-4 million cells/mL (150 μL/well). Plates were incubated for 24 h and the supernatants collected for Mesoscale IL-2 analysis.
# as §4
# Molm-13 cells = assay: Cell viability assay (CellTiter-Glo), Molm-13 cells; details: for viability at 10 µM: MOLM-13, 10 μM; for IC50 / effect on cell viability: Molm-13 cells; for IC50: approximate; for effect on cell viability: 1 μM (FIG. 5)
# Experimental: FIG. 5 represents antiproliferative activity in Molm-13 cells. The cells were incubated with Compound 1, 2, or 3 (at the indicated concentration), DMSO, or pomalidomide. Compound activity was measured based on the signal from remaining viable cells.
# as §1, §2
# TNF-α = assay: TNF-alpha in LPS-induced PBMCs / CD14+ monocytes, Meso Scale assay
# Experimental: FIG. 4 represents the activity against TNF-alpha in CD14, monocytes, plated in 96 well plates and pretreated with Compounds 1, 2, or 3, or pomalidomide, for 1 h and then induced with 100 ng/mL LPS for 18-24 h. Cytokines were measured according to MesoScale protocol. The negative control wells were treated with DMSO. Cells were treated with compound (at the indicated concentrations) or 10 μM pomalidomide. Compound activity was measured as a percentage of LPS-induced activity.
# as §3, §4
# IL-6 = IL-6 in LPS-induced PBMCs / CD14+ monocytes, Meso Scale assay
# Experimental: FIG. 3 represents the activity against IL-6 in CD14, monocytes, plated in 96 well plates and pretreated with Compounds 1, 2, or 3, or pomalidomide, for 1 h and then induced with 100 ng/mL LPS for 18-24 h. Cytokines were measured according to MesoScale protocol. Negative control wells were treated with DMSO. Cells were treated with compound (at the indicated concentrations) or 10 μM pomalidomide. Compound activity was measured as a percentage of LPS-induced activity.
# as §3, §4
Compound,GSPT1 protein level (% of DMSO control) at 0.1 µM (GSPT1) [%],GSPT1 protein level (% of DMSO control) at 1 µM (GSPT1) [%],IC50 (Molm-13 cells; Homo sapiens) [nM],viability at 1 µM (H1048 cells) [%],viability at 10 µM (H1048 cells) [%],inhibition at 1 µM (IL-1β) [%],fold induction at 1 µM (IL-2),"viability at 0.7 µM (Molm-13 cells; Homo sapiens, 72 h, MOLM-13, 0.7 μM, 3 days) [%]",inhibition at 1 µM (TNF-α) [%],inhibition at 1 µM (IL-6) [%],inhibition at 0.1 µM (IL-1β) [%],fold induction at 0.1 µM (IL-2),"viability at 10 µM (Molm-13 cells; Homo sapiens, 72 h, 3 days) [%]",inhibition at 0.1 µM (TNF-α) [%],inhibition at 0.1 µM (IL-6) [%],"viability at 0.3 µM (Molm-13 cells; Homo sapiens, 72 h, MOLM-13, 0.3 μM, 3 days) [%]","viability at 0.4 µM (Molm-13 cells; Homo sapiens, 72 h, MOLM-13, 0.4 μM, 3 days) [%]",effect on cell viability (Molm-13 cells),"viability at 1 µM (Molm-13 cells; Homo sapiens, 72 h, MOLM-13, 1 μM, 3 days) [%]","viability at 0.6 µM (Molm-13 cells; Homo sapiens, 72 h, MOLM-13, 0.6 μM, 3 days) [%]"
"Cc1ccc(NC(=O)NCc2ccc3c(c2)C(=O)N([C@H]2CCCC(=O)NC2=O)C3=O)cc1Cl [Compound 27, (S)-1-(3-chloro-4-methylphenyl)-3-((2-(2,7-dioxoazepan-3-yl)-1,3-dioxoisoindolin-5-yl)methyl)urea]",51.4,23.8,–,101,28.2,–,–,–,–,–,9,1.1,89,19,0,–,–,–,–,–
Cc1ccc(NC(=O)NCc2ccc3c(c2)CN(C2CCCC(=O)NC2=O)C3=O)cc1 (stereo not drawn) [Compound 2],134,23,~800,28.3,4.93,–,–,–,–,–,78,1.4,–,79,51,–,50,reduced cell viability,–,–
"O=C(Cc1ccc(C(F)(F)F)c(Cl)c1)NCc1ccc2c(c1)CN([C@H]1CCCC(=O)NC1=O)C2=O [Compound 10, (S)-2-(3-chloro-4-(trifluoromethyl)phenyl)-N-((2-(2,7-dioxoazepan-3-yl)-1-oxoisoindolin-5-yl)methyl)acetamide]",83.3,49.3,–,82.1,21.5,68,1.5,–,67,67,–,–,96,–,–,–,–,–,–,–
O=C1CCCC(N2Cc3cc(CNC(=O)Nc4cccc(Cl)c4)ccc3C2=O)C(=O)N1 (stereo not drawn) [Compound 3],95.5,46.8,~1000,47.1,6.25,–,–,–,–,–,59,1.4,–,59,27,–,–,reduced cell viability,–,50

# Further lines, with some results ahead:
GSPT1 protein level (% of DMSO control) at 0.1 µM (GSPT1) [%],GSPT1 protein level (% of DMSO control) at 1 µM (GSPT1) [%],IC50 (Molm-13 cells; Homo sapiens) [nM],Compound,viability at 1 µM (H1048 cells) [%],viability at 10 µM (H1048 cells) [%],inhibition at 1 µM (IL-1β) [%],fold induction at 1 µM (IL-2),"viability at 0.7 µM (Molm-13 cells; Homo sapiens, 72 h, MOLM-13, 0.7 μM, 3 days) [%]",inhibition at 1 µM (TNF-α) [%],inhibition at 1 µM (IL-6) [%],inhibition at 0.1 µM (IL-1β) [%],fold induction at 0.1 µM (IL-2),"viability at 10 µM (Molm-13 cells; Homo sapiens, 72 h, 3 days) [%]",inhibition at 0.1 µM (TNF-α) [%],inhibition at 0.1 µM (IL-6) [%],"viability at 0.3 µM (Molm-13 cells; Homo sapiens, 72 h, MOLM-13, 0.3 μM, 3 days) [%]","viability at 0.4 µM (Molm-13 cells; Homo sapiens, 72 h, MOLM-13, 0.4 μM, 3 days) [%]",effect on cell viability (Molm-13 cells),"viability at 1 µM (Molm-13 cells; Homo sapiens, 72 h, MOLM-13, 1 μM, 3 days) [%]","viability at 0.6 µM (Molm-13 cells; Homo sapiens, 72 h, MOLM-13, 0.6 μM, 3 days) [%]"
113,37.9,–,"O=C1CCC[C@H](N2Cc3cc(CNC(=O)Nc4ccc(F)c(Cl)c4)ccc3C2=O)C(=O)N1 [Compound 6, (S)-1-(3-chloro-4-fluorophenyl)-3-((2-(2,7-dioxoazepan-3-yl)-1-oxoisoindolin-5-yl)methyl) urea]",45.7,5.42,64,1.3,50,65,77,–,–,–,–,–,–,–,–,–,–
122,126,–,"Cc1ccc(NC(=O)NCCc2ccc3c(c2)CN([C@H]2CCCC(=O)NC2=O)C3=O)cc1Cl [Compound 24, (S)-1-(3-chloro-4-methylphenyl)-3-(2-(2-(2,7-dioxoazepan-3-yl)-1-oxoisoindolin-5-yl)ethyl)urea]",–,2.81,–,–,–,–,–,26,0.9,98,42,0,–,–,–,–,–
28.6,3.63,~450,Cc1ccc(NC(=O)NCc2ccc3c(c2)CN([C@H]2CCCC(=O)NC2=O)C3=O)cc1Cl [Compound 1],8.39,3.51,–,–,–,–,–,70,1.4,–,75,55,50,–,–,–,–
147,105,–,"Cc1ccc(NC(=O)NCCc2cccc3c2CN([C@H]2CCCC(=O)NC2=O)C3=O)cc1Cl [Compound 23, (S)-1-(3-chloro-4-methylphenyl)-3-(2-(2-(2,7-dioxoazepan-3-yl)-1-oxoisoindolin-4-yl)ethyl)urea]",–,25.1,–,–,–,–,–,21,0.8,96,25,0,–,–,–,–,–
61.6,20.8,–,"Cc1ccc(NC(=S)NCc2ccc3c(c2)CN([C@H]2CCCC(=O)NC2=O)C3=O)cc1Cl [Compound 26, (S)-1-(3-chloro-4-methylphenyl)-3-((2-(2,7-dioxoazepan-3-yl)-1-oxoisoindolin-5-yl)methyl)thiourea]",46.4,4.54,–,–,–,–,–,1,0.8,–,3,0,–,–,–,79,–
